Assay results from patent US8372831B2, “Isoxazoline linked pyrrolo[2,1-c][1,4]benzodiazepine hybrids as potential anticancer agents and the process for preparation thereof” (Council of Scientific & Industrial Research, priority 2008, dated 2013).
Read-outs that look alike come from different tables or passages of the source.

Legend:
UO-31 = test: NCI SRB cytotoxicity, UO-31 (renal); assay type: cell-based, human; settings: 48 hrs exposure
Method: (§1) Biological Activity: The in vitro biological activity studies were carried out at the National Cancer Institute, Maryland, USA.
(§2) The C8-linked isoxazoline-PBD hybrids have been tested against sixty human tumour cell lines derived from nine cancer types (leukemia, non-small cell lung cancer, colon cancer, CNS cancer, melanoma, ovarian cancer, renal cancer, prostate cancer and breast cancer) as per NCI protocol. For each compound, dose response curves for individual cell lines have been measured at a minimum of five concentrations at 10 fold dilutions. A protocol of 48 hrs continuous drug exposure has been used, and a sulforhodamine B (SRB) protein assay was used to estimate cell viability or growth. The concentration for 50% cell growth inhibition (GI50), total cell growth inhibition (TGI, 0% growth) and 50% cell death (LC50, […]) compared with the control has been calculated (FIG. 2).
(§3) Compound 5b and 9b have been evaluated for in vitro cytotoxicity in sixty cell lines from nine human cancer types of lung (Hop-62, NCI-H226, NCI-H522), leukemia (K-562, SR), colon (HCT-116, HCT-15, HCC-2998), CNS(SF-539), melanoma (SK-MEL-5, UACC-62, M14), ovarian (IGROV1), renal (A498), prostate (PC3) breast (BT-549, MDA-MB-435, HS578T) origin. The results are expressed as percent of cell growth determined relative to that of untreated control cells (Table 1).

OVCAR-8 = test: NCI SRB cytotoxicity, OVCAR-8 (ovarian); assay type: cell-based, human; settings: 48 hrs exposure
Method: as §1, §2, §3

M14 = test: NCI SRB cytotoxicity, M14 (melanoma); assay type: cell-based, human
Method: as §1, §2, §3

SK-MEL-2 = test: NCI SRB cytotoxicity, SK-MEL-2 (melanoma); assay type: cell-based, human; settings: 48 hrs exposure
Method: as §1, §2, §3

BT-549 = test: NCI SRB cytotoxicity, BT-549 (breast); assay type: cell-based, human
Method: as §1, §2, §3

SF-268 = test: NCI SRB cytotoxicity, SF-268 (CNS); assay type: cell-based, human; settings: 48 hrs exposure
Method: as §1, §2, §3

DU-145 = test: NCI SRB cytotoxicity, DU-145 (prostate); assay type: cell-based, human; settings: 48 hrs exposure
Method: as §1, §2, §3

Breast = test: NCI SRB cytotoxicity, breast cancer panel; assay type: cell-based, human; settings: average of six to eight different cancer cell lines; for Log10 LC50: 50% lethality
Method: as §1, §2, §3

CNS = test: NCI SRB cytotoxicity, CNS cancer panel; assay type: cell-based, human; settings: average of six to eight different cancer cell lines; for Log10 LC50: 50% lethality
Method: as §1, §2, §3

SN12C = test: NCI SRB cytotoxicity, SN12C (renal); assay type: cell-based, human; settings: 48 hrs exposure
Method: as §1, §2, §3

UACC-62 = test: NCI SRB cytotoxicity, UACC-62 (melanoma); assay type: cell-based, human
Method: as §1, §2, §3

HOP-62 = test: NCI SRB cytotoxicity, HOP-62 (non-small cell lung); assay type: cell-based, human
Method: as §1, §2, §3

T-47D = test: NCI SRB cytotoxicity, T-47D (breast); assay type: cell-based, human; settings: 48 hrs exposure
Method: as §1, §2, §3

[1] = tested on: duplex-form calf thymus DNA (CT-DNA); test: Thermal denaturation studies with calf thymus DNA; assay type: binding; settings: [PBD]:[DNA] molar ratio 1:5, CT-DNA 100 μM, ligand 20 μM, pH 7.00
Method: Compounds have been subjected to thermal denaturation studies with duplex-form calf thymus DNA (CT-DNA) using a modification of a reported procedure. Working solutions in aqueous buffer (10 mM NaH2PO4/Na2HPO4, 1 mM Na2EDTA, pH 7.00+0.01) containing CT-DNA (100 (μm in phosphate) and the PBD (20(μm) have been prepared by addition of concentrated PBD solutions in DMSO to obtain a fixed [PBD]/[DNA] molar ratio of 1:5. The DNA-PBD solutions have been incubated at 37° C. for 0 and 18 hrs prior to analysis. Samples have been monitored at 260 nm using a Beckman DU-800 spectrophotometer fitted with high performance temperature controller, and heated at 1° C. min^−1 in the 40-110° C. range. DNA helix→coil transition temperatures (Tm) have been obtained from the maxima in the d(A260)/d T derivative plots. Drug-induced alterations in DNA melting behavior are given by: ΔTm=Tm(DNA+PBD)−Tm(DNA alone), where the Tm value for the PBD-free CT-DNA is 68.5±0.01.
The DNA-binding for these novel C8-linked isoxazoline-PBD hybrids has been examined by thermal denaturation studies using calf thymus CT-DNA. […] Data for 5a-c, 9b and 9g and DC-81 are included in Table 4 for comparison.

OVCAR-3 = test: NCI SRB cytotoxicity, OVCAR-3 (ovarian); assay type: cell-based, human; settings: 48 hrs exposure
Method: as §1, §2, §3

NCI-H460 = test: NCI SRB cytotoxicity, NCI-H460 (non-small cell lung); assay type: cell-based, human; settings: NCI-H460, Non-smallcell lung; 48 hrs exposure
Method: as §1, §2, §3

NCI-H522 = test: NCI SRB cytotoxicity, NCI-H522 (non-small cell lung); assay type: cell-based, human
Method: as §1, §2, §3

SNB-75 = test: NCI SRB cytotoxicity, SNB-75 (CNS); assay type: cell-based, human; settings: 48 hrs exposure
Method: as §1, §2, §3

U251 = test: NCI SRB cytotoxicity, U251 (CNS); assay type: cell-based, human; settings: 48 hrs exposure
Method: as §1, §2, §3

OVCAR-4 = test: NCI SRB cytotoxicity, OVCAR-4 (ovarian); assay type: cell-based, human; settings: 48 hrs exposure
Method: as §1, §2, §3

HT29 = test: NCI SRB cytotoxicity, HT29 (colon); assay type: cell-based, human; settings: 48 hrs exposure
Method: as §1, §2, §3

IGROV1 = test: NCI SRB cytotoxicity, IGROV1 (ovarian); assay type: cell-based, human
Method: as §1, §2, §3

HS 578T = test: NCI SRB cytotoxicity, HS 578T (breast); assay type: cell-based, human
Method: as §1, §2, §3

[2] = tested on: sixty human tumour cell lines; test: NCI in vitro cytotoxicity, sixty human tumour cell lines (SRB); assay type: cell-based; settings: for GI50: bound over all cell lines; for Log10 GI50 mean graph midpoint (MG_MID) / Log10 TGI mean graph midpoint (MG_MID): human tumour cell lines; for Log10 TGI mean graph midpoint (MG_MID): total cell growth inhibition
Method: as §1, §2, §3

HCC-2998 = test: NCI SRB cytotoxicity, HCC-2998 (colon); assay type: cell-based, human
Method: as §1, §2, §3

SNB-19 = test: NCI SRB cytotoxicity, SNB-19 (CNS); assay type: cell-based, human; settings: 48 hrs exposure
Method: as §1, §2, §3

SF-539 = test: NCI SRB cytotoxicity, SF-539 (CNS); assay type: cell-based, human
Method: as §1, §2, §3

[3] = BT-549, Breast, 48 hrs exposure
[4] = UACC-62, Melanoma, 48 hrs exposure
[5] = HOP-62, Non-smallcell lung, 48 hrs exposure
[6] = NCI-H522, Non-smallcell lung, 48 hrs exposure
[7] = IGROV1, Ovarian, 48 hrs exposure
[8] = HS 578T, Breast, 48 hrs exposure
[9] = text b111, read-out: GI50 against sixty cell lines in nine cancer cell panels
[10] = HCC-2998, Colon, 48 hrs exposure

## COc1cc(C2=NOC(c3cc(OC)c(OC)c(OC)c3)C2)ccc1OCCCCOc1cc2c(cc1OC)C(=O)N1CCC[C@H]1C=N2 (stereo partly drawn) [Compound 5b, (11aS)-7-(methyloxy)-8-(4-[(2-(methyloxy)-4-5-[3,4,5-tri(methyloxy)phenyl]-4,5-dihydro-3-isoxazolylphenyl)oxy]butyloxy)-2,3,5,11a-tetrahydro-1H benzo[e]pyrrolo[1,2-a][1,4]diazepin-5-one]
UO-31
  GI50: 290 nM
OVCAR-8
  GI50: 370 nM
M14; M14, Melanoma, 48 hrs exposure
  GI50: 180 nM
M14; melanoma M14
  GI50: 180 nM
SK-MEL-2
  GI50: 230 nM
BT-549; [3]
  GI50: 90 nM
BT-549; breast BT-549
  GI50: 90 nM
SF-268
  GI50: 340 nM
DU-145
  GI50: 320 nM
Breast
  Log10 LC50: −4.52 mol/L
  Log10GI50: −6.74 mol/L
CNS
  Log10 LC50: −5.18 mol/L
  Log10GI50: −6.51 mol/L
SN12C
  GI50: 300 nM
UACC-62; [4]
  GI50: 160 nM
UACC-62; melanoma UACC-62
  GI50: 160 nM
HOP-62; [5]
  GI50: 270 nM
HOP-62; non-small cell lung cancer HOP-62
  GI50: 270 nM
T-47D
  GI50: 280 nM
[1]
  ΔTm after incubation at 37° C. for 0 hrs: 4.1 °C
  ΔTm after incubation at 37° C. for 18 hrs: 6.2 °C
OVCAR-3
  GI50: 270 nM
NCI-H460
  GI50: 210 nM
NCI-H522; [6]
  GI50: 120 nM
NCI-H522; non-small cell lung cancer NCI-H522
  GI50: 120 nM
SNB-75
  GI50: 320 nM
U251
  GI50: 300 nM
OVCAR-4
  GI50: 400 nM
HT29
  GI50: 360 nM
IGROV1; [7]
  GI50: 240 nM
IGROV1; ovarian IGROV1
  GI50: 240 nM
HS 578T; [8]
  GI50: 160 nM
HS 578T; breast HS 578T
  GI50: 160 nM
[2]; read-out: GI50 against sixty cell lines in nine cell panels
  GI50: < 470 nM
[2]; human cancer cell lines
  in vitro cytotoxicity (in words): significant cytotoxicity
[2]
  Log10 GI50 mean graph midpoint (MG_MID): −6.59
  Log10 TGI mean graph midpoint (MG_MID): −6.05
[2]; in vitro cytotoxicity, comparison of GI50
  activity of 5b compared with 9b: ten folds higher activity than 9b
[2]; [9]
  GI50: < 470 nM
HCC-2998; [10]
  GI50: 190 nM
HCC-2998; colon cancer HCC-2998
  GI50: 190 nM
SNB-19
  GI50: 340 nM
SF-539; CNS SF-539
  GI50: 220 nM
SF-539; SF-539, CNS, 48 hrs exposure
  GI50: 220 nM

## COc1ccc(C2CC(c3ccc(OC)c(OC)c3OC)=NO2)cc1OCCCCOc1cc2c(cc1OC)C(=O)N1CCC[C@H]1C=N2 (stereo partly drawn) [Compound 9b, (11aS)-7-(methyloxy)-8-(4-[(2-(methyloxy)-5-3-[2,3,4-tri(methyloxy)phenyl]-4,5-dihydro-5-isoxazolylphenyl)oxy]butyloxy)-2,3,5,11a-tetrahydro-1H-benzo[e]pyrrolo[1,2-a][1,4]diazepin-5-one]
UO-31
  GI50: 2090 nM
OVCAR-8
  GI50: 2550 nM
M14; M14, Melanoma, 48 hrs exposure
  GI50: 1730 nM
SK-MEL-2
  GI50: 2030 nM
BT-549; [3]
  GI50: 1230 nM
SF-268
  GI50: 1890 nM
DU-145
  GI50: 2480 nM
Breast
  Log10 LC50: −4.34 mol/L
  Log10GI50: −5.74 mol/L
CNS
  Log10 LC50: −5.05 mol/L
  Log10GI50: −5.74 mol/L
SN12C
  GI50: 1580 nM
UACC-62; [4]
  GI50: 1520 nM
HOP-62; [5]
  GI50: 1680 nM
T-47D
  GI50: 1310 nM
[1]
  ΔTm after incubation at 37° C. for 0 hrs: 1.2 °C
  ΔTm after incubation at 37° C. for 18 hrs: 2.3 °C
OVCAR-3
  GI50: 1940 nM
NCI-H460
  GI50: 1850 nM
NCI-H522; [6]
  GI50: 610 nM
SNB-75
  GI50: 1710 nM
U251
  GI50: 1730 nM
OVCAR-4
  GI50: 2070 nM
HT29
  GI50: 2750 nM
IGROV1; [7]
  GI50: 1570 nM
HS 578T; [8]
  GI50: 1100 nM
[2]
  Log10 GI50 mean graph midpoint (MG_MID): −5.73
  Log10 TGI mean graph midpoint (MG_MID): −5.28
[2]; [9]
  GI50: < 3540 nM
HCC-2998; [10]
  GI50: 1580 nM
SNB-19
  GI50: 1960 nM
SF-539; SF-539, CNS, 48 hrs exposure
  GI50: 1800 nM
